Assay [1] concerns the target T1, Glycogen synthase kinase 3 (Rattus norvegicus, UniProt P18266).
T1 construct: made in house; host or cells: Sf9 insect cells
Nature of the assay: Inhibitory activity in respect of GSK-3. To be noted: GS-1 peptide substrate, 15 μM ATP, 30 minutes at 30° C. Type of assay: biochemical. Here is the method: Glycogen synthase kinase 3 was purified starting from Sf9 cells transfected as described in Eur. J. Biochem., 1992, 305-311. The reaction mixture comprises, in a final volume of 30 μl: 1 mg/ml of BSA, 10 mM DTT, 6.7 μM GS-1 peptide as substrate, 15 μM [γ-^32P]ATP (3000 Ci/mmol, 1 mCi/ml), 10 mM MgCl2, 1 mM EGTA, 25mM Tris-HCl pH=7.5, 50 μg/ml of heparin, and the inhibitor at a given concentration. After 30 minutes at 30° C., 25 μl of the mixture are deposited on Whatman® P81 phosphocellulose paper filters, which are then washed 5 times with 10 ml of phosphoric acid (10 ml/l). The radioactivity of the filters is then counted in the presence of 1 ml of scintillation liquid. The IC50 values are estimated from dose-response curves.

Assay [2] relates to CDK1/cyclin B. Nature of the assay: Inhibitory activity in respect of CDK-1. Type of assay: biochemical, starfish (Marthasterias glacialis). The note with it: histone H1 substrate, 15 μM ATP, 10 minutes at 30° C. The protocol: The enzyme was purified from a starfish (Marthasterias glacialis) oocyte homogenate at M phase as described in Eur. J. Biochem, 1997, 243, 527-536 and J. Biol. Chem.,1999, 274, 11977-11986. The reaction mixture comprises, in a volume of 30 μl: 1 mg/ml of histone H1 as substrate, 15 μM [γ-^32P]ATP (3000 Ci/mmol, 1 mCi/ml), 15 mM MgCl2, 60 mM β-glycerophosphate, 15 mM p-nitrophenylphosphate, 25 mM MOPS pH=7.2, 5 mM EGTA, 1 mM DTT, 1 mM sodium vanadate, and the inhibitor at a given concentration. After 10 minutes' incubation at 30° C., 25 μl of the reaction mixture are removed and treated as described above in the GSK-3 protocol. The IC50 values are estimated from dose-response curves.

In assay [3] the target is CDK5/p25 complex (Homo sapiens, UniProt Q00535). Description: Inhibitory activity in respect of CDK5. Type of assay: biochemical. To be noted: CDK5 activated by p25 (1/1 mixture), measured as for CDK1/cyclin B. Here is the method: CDK5 was expressed in E. coli in the form of a GST (Glutathione-S-transferase) fusion protein and purified on a glutathione-agarose affinity column. CDK5 is then activated by p25 (1/1 mixture), prepared in the same manner. The enzymatic activity of the CDK5/p25 complex is measured as described above for CDK1/cyclin B. The IC50 values are estimated from dose-response curves.
Sequence of CDK5/p25 complex (Q00535 whole entry, species assumed, the tested form may be a part): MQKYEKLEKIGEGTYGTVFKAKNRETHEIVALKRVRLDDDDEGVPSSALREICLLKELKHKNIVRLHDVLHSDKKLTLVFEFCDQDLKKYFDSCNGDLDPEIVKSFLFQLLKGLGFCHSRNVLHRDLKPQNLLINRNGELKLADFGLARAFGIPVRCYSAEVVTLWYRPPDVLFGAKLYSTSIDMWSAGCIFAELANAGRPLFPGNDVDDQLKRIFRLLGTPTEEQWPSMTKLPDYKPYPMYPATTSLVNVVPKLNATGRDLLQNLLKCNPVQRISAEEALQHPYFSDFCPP
Sequence of CDK5/p25 complex (Q15078 99-307 partner limits assumed, species assumed): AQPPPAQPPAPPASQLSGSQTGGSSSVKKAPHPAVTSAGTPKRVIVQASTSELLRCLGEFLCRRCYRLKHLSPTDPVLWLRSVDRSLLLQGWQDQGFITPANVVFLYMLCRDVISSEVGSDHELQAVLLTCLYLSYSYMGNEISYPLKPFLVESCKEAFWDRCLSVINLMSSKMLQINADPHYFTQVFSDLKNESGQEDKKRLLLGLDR

T1 sequence (P18266 whole entry): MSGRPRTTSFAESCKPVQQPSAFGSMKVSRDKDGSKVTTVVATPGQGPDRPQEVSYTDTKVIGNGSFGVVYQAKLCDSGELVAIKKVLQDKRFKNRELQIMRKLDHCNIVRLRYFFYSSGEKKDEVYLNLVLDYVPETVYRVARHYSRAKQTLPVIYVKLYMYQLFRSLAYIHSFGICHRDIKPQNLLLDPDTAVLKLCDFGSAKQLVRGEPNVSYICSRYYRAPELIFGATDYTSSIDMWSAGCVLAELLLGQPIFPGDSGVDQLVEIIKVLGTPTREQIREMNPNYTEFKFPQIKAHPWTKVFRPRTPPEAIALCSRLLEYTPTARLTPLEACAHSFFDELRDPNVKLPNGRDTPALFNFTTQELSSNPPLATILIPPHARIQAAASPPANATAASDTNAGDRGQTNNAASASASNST

On to `CO[C@H]1[C@H](O)[C@@H](O)[C@H](n2c3ccc(CO)cc3c3c4c(c5c6cc(CO)ccc6[nH]c5c32)C(=O)NC4=O)O[C@@H]1CO` [Example 1, 3,9-bis(hydroxymethyl)-1 2-(4-O-methyl-β-D-glucopyranosyl)-12,13-dihydro-5H-indolo[2,3-a]pyrrolo[3,4-c]carbazole-5,7(6H)-dione], for which the 50% inhibitory concentration (IC50) in assay [1] was 30 nM; in assay [2] it was over 5000 nM; in assay [3] it was over 5000 nM.
